From patent publication US20060156421A1, “High throughput screening methods for anti-metastatic compounds” (priority 2004, published 2006)

Experiments:
Drosophila = Drosophila melanogaster, in vivo
Excerpt: Lethality of candidate compounds for Drosophila can be used to detect and quantify toxicity of candidate compounds. Well known standard statistical methods are used to help distinguish chance results from real toxic effects. Lethality is quantified, for example, by determining the number of Drosophila that fail to develop successfully to adulthood and applying suitable statistical analyses to determine statistical significance. Lethal dose evaluations can be used to quantify the extent of toxicity. […] In another exemplary example, the emergence of most Drosophila adults within a microwell indicates a lowered probability that an introduced compound is toxic.
FIG. 3 illustrates in part the results of screening compound ZD6474 according to the screening methods of the present invention. […] Therefore, the estimated therapeutic index (ratio of concentrations that are toxic to Drosophila to concentrations that reduce the retinal phenotype is […].

dRet = test: Drosophila screening: rough eye phenotype of GMR-dRet flies fed compound in microtiter wells; type: in vivo, Drosophila melanogaster; details: compound in growth medium
Description: (§1) Accordingly, methods, related apparatus and kits for high throughput screening assays involve the preparation of microtiter plates each with multiple wells, wherein each well initially contains one or more Drosophila embryos with a transgene and an amount of a Drosophila growth medium. The embryos develop while feeding on the growth medium. The precise age of the embryos at the time they are plated matters less than the fact that they are all about the same age, to permit accurate evaluation of the possible effects of the candidate compound on larval and pupal development.
To prepare the microtiter plates, for example, 96-well microtiter plates are used, such as those commonly commercially available and typically used for various laboratory assay techniques, including other high throughput drug assay techniques. Into each well is pipetted 50-100 μl of standard Drosophila growth medium. An exemplary range of about 50 to about 100 μl is a balance between (i) providing sufficient food so as not to place undue feeding stress on the developing flies and (ii) providing sufficient air space for the third larval instars to find sufficient wall space to pupate and for minimal stress on the developing larvae and pupae. Any one of several standard Drosophila growth medium recipes as known in the art of breeding Drosophila for research can be used. […]

dRet^MEN2B = test: Drosophila screening: rough eye phenotype of GMR-dRet^MEN2B flies fed compound in microtiter wells; type: in vivo, Drosophila melanogaster
Description: as §1
To prepare the microtiter plates, for example, 96-well microtiter plates are used, such as those commonly commercially available and typically used for various laboratory assay techniques, including other high throughput drug assay techniques. Into each well is pipetted 50-100 μl of standard Drosophila growth medium. An exemplary range of about 50 to about 100 μl is a balance between (i) providing sufficient food so as not to place undue feeding stress on the developing flies and (ii) providing sufficient air space for the third larval instars to find sufficient wall space to pupate and for minimal stress on the developing larvae and pupae. Any one of several standard Drosophila growth medium recipes as known in the art of breeding Drosophila for research can be used.
In an exemplary embodiment, a candidate compound, or cocktail of more than one compound, that has been selected for screening is prepared in EtOH or DMSO/aqueous solution. In an exemplary embodiment, EtOH is used. Although DMSO can be used, it can be toxic if it reaches final concentrations of more than 0.3% of the growth medium. The compound in solution is added and allowed to diffuse through the growth medium for an initial period of about 16 to about 24 hours. Alternatively, the compound in solution is mixed with the food by pipetting, by shaking, or by sonicating. […]

Ret = details: previously tested, Carlomagno et al., 2002; cited from earlier work
VEGF-class receptors = details: literature citations; cited from earlier work

Question: With `COc1cc2c(Nc3ccc(Br)cc3F)ncnc2cc1OCC1CCN(C)CC1` [ZD6474] as the molecule, how does the “concentrations at which toxicity was observed” value (Drosophila) read?
Answer: ≥ 2500 µM

Question: What about the “estimated therapeutic index (ratio of concentrations toxic to Drosophila to concentrations that reduce the retinal phenotype)” value (Drosophila) of the same molecule?
Answer: 31

Question: And the “inhibition of severity of the rough eye phenotype of dRet” value (dRet)?
Answer: strongly inhibit

Question: What about the “inhibition of severity of the rough eye phenotype of dRet^MEN2B” value (dRet^MEN2B; Drosophila eye, compound in growth medium) of the same molecule?
Answer: strongly inhibit

Question: What about the “rescue of the dRet^MEN2B phenotype” value (dRet^MEN2B; FIG. 3 panels, varying concentration) of the same molecule?
Answer: concentration-dependent

Question: And the “doses at which at least partial rescue was observed” value (dRet^MEN2B; retinal phenotype, lowest effective concentration)?
Answer: ≥ 0.04 mM

Question: And the “effect on Ret activity in a tissue culture model” value (Ret)?
Answer: reduce Ret activity

Question: What about the “efficacy for VEGF-class receptors” value (VEGF-class receptors) of the same molecule?
Answer: some efficacy
